Measurements published in PubChem BioAssay (NCI).
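Following 48 hours of exposure in 96-well plates, responses at five concentrations were used to interpolate endpoints linearly. Here, GI50 denotes the concentration required for 50% inhibition of growth. The concentration for full growth arrest is given as TGI.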

How the values were obtained:
Test in all cases: growth of human tumour cells (NCI), 48 h
SW-620 colon = test system: SW-620 colon
OVCAR-3 ovarian = test system: OVCAR-3 ovarian
NCI-H23 lung = test system: NCI-H23 lung
SK-OV-3 ovarian = test system: SK-OV-3 ovarian
SNB-19 CNS = test system: SNB-19 CNS
PC-3 prostate = test system: PC-3 prostate
HCT-116 colon = test system: HCT-116 colon
A498 renal = test system: A498 renal
UACC-62 melanoma = test system: UACC-62 melanoma
786-0 renal = test system: 786-0 renal
U251 CNS = test system: U251 CNS
K-562 leukemia = test system: K-562 leukemia
MDA-MB-468 breast = test system: MDA-MB-468 breast
T-47D breast = test system: T-47D breast
COLO 205 colon = test system: COLO 205 colon
MDA-MB-231 breast = test system: MDA-MB-231 breast
LOX IMVI melanoma = test system: LOX IMVI melanoma
ACHN renal = test system: ACHN renal
HOP-92 NSCLC = test system: HOP-92 NSCLC
IGROV1 ovarian = test system: IGROV1 ovarian
MOLT-4 leukemia = test system: MOLT-4 leukemia
RXF 393 renal = test system: RXF 393 renal
DU-145 prostate = test system: DU-145 prostate
CCRF-CEM leukemia = test system: CCRF-CEM leukemia
TK-10 renal = test system: TK-10 renal
OVCAR-4 ovarian = test system: OVCAR-4 ovarian
SK-MEL-28 melanoma = test system: SK-MEL-28 melanoma
SK-MEL-2 melanoma = test system: SK-MEL-2 melanoma
HCT-15 colon = test system: HCT-15 colon
HCC-2998 colon = test system: HCC-2998 colon
MDA-MB-435 = test system: MDA-MB-435
HL-60(TB) leukemia = test system: HL-60(TB) leukemia
KM12 colon = test system: KM12 colon
HS 578T breast = test system: HS 578T breast
BT-549 breast = test system: BT-549 breast
OVCAR-5 ovarian = test system: OVCAR-5 ovarian
HOP-62 NSCLC = test system: HOP-62 NSCLC
SF-539 CNS = test system: SF-539 CNS
NCI-H226 lung = test system: NCI-H226 lung
NCI-H522 lung = test system: NCI-H522 lung
OVCAR-8 ovarian = test system: OVCAR-8 ovarian
UACC-257 melanoma = test system: UACC-257 melanoma
UO-31 renal = test system: UO-31 renal
SK-MEL-5 melanoma = test system: SK-MEL-5 melanoma
SN12C renal = test system: SN12C renal
CAKI-1 renal = test system: CAKI-1 renal
RPMI-8226 leukemia = test system: RPMI-8226 leukemia
NCI-H460 lung = test system: NCI-H460 lung
EKVX NSCLC = test system: EKVX NSCLC
SR leukemia = test system: SR leukemia
MCF7 breast = test system: MCF7 breast
SF-295 CNS = test system: SF-295 CNS
NCI/ADR-RES ovarian = test system: NCI/ADR-RES ovarian
A549 NSCLC = test system: A549 NSCLC
MALME-3M melanoma = test system: MALME-3M melanoma
HT29 colon = test system: HT29 colon
SF-268 CNS = test system: SF-268 CNS
M14 melanoma = test system: M14 melanoma

## Cc1cc2c(c(O)c1Br)-c1ncoc1C(=O)[C@]1(C)CC[C@H](C(C)C)[C@H]21
SW-620 colon
  GI50: 3.38 µM
  TGI: 17 µM
OVCAR-3 ovarian
  GI50: 3.83 µM
  TGI: 13.6 µM
NCI-H23 lung
  GI50: 4.64 µM
  TGI: 47.3 µM
SK-OV-3 ovarian
  GI50: 6.72 µM
  TGI: > 100 µM
SNB-19 CNS
  GI50: 7.35 µM
  TGI: > 100 µM
PC-3 prostate
  GI50: 3.1 µM
  TGI: 20.5 µM
HCT-116 colon
  GI50: 3.17 µM
  TGI: 13.8 µM
A498 renal
  GI50: > 100 µM
  TGI: > 100 µM
UACC-62 melanoma
  GI50: 2.46 µM
  TGI: 8.58 µM
786-0 renal
  GI50: 7.18 µM
  TGI: 21.9 µM
U251 CNS
  GI50: 4.34 µM
  TGI: 17.1 µM
K-562 leukemia
  GI50: 2.93 µM
  TGI: 11.6 µM
MDA-MB-468 breast
  GI50: 2.14 µM
  TGI: 6.63 µM
T-47D breast
  GI50: 2.89 µM
  TGI: 21.2 µM
COLO 205 colon
  GI50: 2.61 µM
  TGI: 10.3 µM
MDA-MB-231 breast
  GI50: 4.36 µM
  TGI: 18.8 µM
LOX IMVI melanoma
  GI50: 3.71 µM
  TGI: 14.5 µM
ACHN renal
  GI50: 10.1 µM
  TGI: 34 µM
HOP-92 NSCLC
  GI50: 1.03 µM
  TGI: 5.99 µM
IGROV1 ovarian
  GI50: 4.42 µM
  TGI: 82.4 µM
MOLT-4 leukemia
  GI50: 3.18 µM
  TGI: 14.9 µM
RXF 393 renal
  GI50: 4.16 µM
  TGI: 17.7 µM
DU-145 prostate
  GI50: 5 µM
  TGI: 21.2 µM
CCRF-CEM leukemia
  GI50: 4.14 µM
  TGI: 27.1 µM
TK-10 renal
  GI50: 9.26 µM
  TGI: 74.3 µM
OVCAR-4 ovarian
  GI50: 4.1 µM
  TGI: 33.7 µM
SK-MEL-28 melanoma
  GI50: 4.37 µM
  TGI: 18.4 µM
SK-MEL-2 melanoma
  GI50: 2.51 µM
  TGI: 8.15 µM
HCT-15 colon
  GI50: 2.62 µM
  TGI: 11.8 µM
HCC-2998 colon
  GI50: 4.22 µM
  TGI: 17.7 µM
MDA-MB-435
  GI50: 2.07 µM
  TGI: 5.23 µM
HL-60(TB) leukemia
  GI50: 2.19 µM
  TGI: 6.69 µM
KM12 colon
  GI50: 3.49 µM
  TGI: 35.6 µM
HS 578T breast
  GI50: 5.34 µM
  TGI: > 100 µM
BT-549 breast
  GI50: 4.64 µM
  TGI: 17.1 µM
OVCAR-5 ovarian
  GI50: 5.36 µM
  TGI: 23.1 µM
HOP-62 NSCLC
  GI50: 4.45 µM
  TGI: 21.7 µM
SF-539 CNS
  GI50: 4.08 µM
  TGI: 14.9 µM
NCI-H226 lung
  GI50: 5.88 µM
  TGI: 22.1 µM
NCI-H522 lung
  GI50: 2.18 µM
  TGI: 6.24 µM
OVCAR-8 ovarian
  GI50: 5.45 µM
  TGI: 22.4 µM
UACC-257 melanoma
  GI50: 3.58 µM
  TGI: 18.7 µM
UO-31 renal
  GI50: 5 µM
  TGI: 24.8 µM
SK-MEL-5 melanoma
  GI50: 2.95 µM
  TGI: 10.3 µM
SN12C renal
  GI50: 3.19 µM
  TGI: 12.9 µM
CAKI-1 renal
  GI50: 4.73 µM
  TGI: 33.6 µM
RPMI-8226 leukemia
  GI50: 3.35 µM
  TGI: 15.7 µM
NCI-H460 lung
  GI50: 3.33 µM
  TGI: 14.5 µM
EKVX NSCLC
  GI50: 6.77 µM
  TGI: 28.6 µM
SR leukemia
  GI50: 2.14 µM
  TGI: 7.25 µM
MCF7 breast
  GI50: 3.45 µM
  TGI: 15.2 µM
SF-295 CNS
  GI50: 3.31 µM
  TGI: 18 µM
NCI/ADR-RES ovarian
  GI50: 2.82 µM
  TGI: 9.19 µM
A549 NSCLC
  GI50: 4.33 µM
  TGI: 29.6 µM
MALME-3M melanoma
  GI50: 2.61 µM
  TGI: 11.8 µM
HT29 colon
  GI50: 2.77 µM
  TGI: 16 µM
SF-268 CNS
  GI50: 4.27 µM
  TGI: 34.3 µM
M14 melanoma
  GI50: 2.85 µM
  TGI: 14 µM
